Measurements taken from ChEMBL document CHEMBL4229379, “Synthesis and structure-activity relationship of novel bisindole amidines active against MDR Gram-positive and Gram-negative bacteria” (Eur J Med Chem, 2018).
Values after ≈ are worked out from the molar mass of the structure shown.

What was measured:
Format in all cases: functional
[1] = tested on: Acinetobacter calcoaceticus; assay: Antibacterial activity against new delhi metallo-beta-lactamase-1 harboring Acinetobacter calcoaceticus 13-1 after 18 hrs by CLSI broth microdilution method
[2] = tested on: Klebsiella pneumoniae; assay: Antibacterial activity against carbapenem-resistant Klebsiella pneumoniae 12-12 after 18 hrs by CLSI broth microdilution method
[3] = tested on: Escherichia coli; assay: Antibacterial activity against extended-spectrum beta-lactamase harboring Escherichia coli 13-1 after 18 hrs by CLSI broth microdilution method
[4] = tested on: Enterobacter cloacae; assay: Antibacterial activity against new delhi metallo-beta-lactamase-1 harboring Enterobacter cloacae 13-1 after 18 hrs by CLSI broth microdilution method
[5] = tested on: Klebsiella aerogenes; assay: Antibacterial activity against carbapenem-resistant Enterobacter aerogenes 11-4 after 18 hrs by CLSI broth microdilution method
[6] = tested on: Enterobacter cloacae; assay: Antibacterial activity against new delhi metallo-beta-lactamase-1 harboring Enterobacter cloacae CDC1000654 after 18 hrs by CLSI broth microdilution method
[7] = tested on: Escherichia coli; assay: Antibacterial activity against extended-spectrum beta-lactamase harboring Escherichia coli CDC1001728 after 18 hrs by CLSI broth microdilution method
[8] = tested on: Acinetobacter calcoaceticus; assay: Antibacterial activity against carbapenem-resistant Acinetobacter calcoaceticus 12-6 after 18 hrs by CLSI broth microdilution method
[9] = tested on: Klebsiella pneumoniae; assay: Antibacterial activity against new delhi metallo-beta-lactamase-1 harboring Klebsiella pneumoniae 13-1 after 18 hrs by CLSI broth microdilution method
[10] = tested on: Klebsiella pneumoniae; assay: Antibacterial activity against carbapenem-resistant Klebsiella pneumoniae 12-11 after 18 hrs by CLSI broth microdilution method
[11] = tested on: Stenotrophomonas maltophilia; assay: Antibacterial activity against Stenotrophomonas maltophilia ATCC 13636 after 18 hrs by CLSI broth microdilution method; conditions: ATCC 13636, 18 h
[12] = tested on: Enterobacter cloacae; assay: Antibacterial activity against Enterobacter cloacae ATCC 43560 after 18 hrs by CLSI broth microdilution method; conditions: ATCC 43560, 18 h
[13] = tested on: Enterococcus faecalis; assay: Antibacterial activity against vancomycin-resistant Enterococcus faecalis ATCC 51299 after 18 hrs by CLSI broth microdilution method; conditions: ATCC 51299, 18 h
[14] = tested on: Klebsiella pneumoniae; assay: Antibacterial activity against extended-spectrum beta-lactamase deficient Klebsiella pneumoniae 7 after 18 hrs by CLSI broth microdilution method; conditions: Klebsiella pneumoniae, 7, 18 h
[15] = tested on: Enterococcus faecium; assay: Antibacterial activity against vancomycin-resistant Enterococcus faecium ATCC 700221 after 18 hrs by CLSI broth microdilution method; conditions: ATCC 700221, 18 h
[16] = tested on: Staphylococcus aureus; assay: Antibacterial activity against methicillin-resistant Staphylococcus aureus 12-33 after 18 hrs by CLSI broth microdilution method; conditions: 12-33, 18 h
[17] = tested on: Enterococcus faecalis; assay: Antibacterial activity against vancomycin-sensitive Enterococcus faecalis 12-5 after 18 hrs by CLSI broth microdilution method; conditions: 12-5, 18 h
[18] = tested on: Enterococcus faecalis; assay: Antibacterial activity against vancomycin-resistant Enterococcus faecalis 09-9 after 18 hrs by CLSI broth microdilution method; conditions: 09-9, 18 h
[19] = tested on: Staphylococcus aureus; assay: Antibacterial activity against methicillin-sensitive Staphylococcus aureus 12-28 after 18 hrs by CLSI broth microdilution method; conditions: 12-28, 18 h
[20] = tested on: Enterococcus faecalis; assay: Antibacterial activity against vancomycin-sensitive Enterococcus faecalis ATCC 29212 after 18 hrs by CLSI broth microdilution method; conditions: ATCC 29212, 18 h
[21] = tested on: Klebsiella pneumoniae; assay: Antibacterial activity against extended-spectrum beta-lactamase deficient Klebsiella pneumoniae 12-4 after 18 hrs by CLSI broth microdilution method; conditions: 12-4, 18 h
[22] = tested on: Serratia marcescens; assay: Antibacterial activity against Serratia marcescens ATCC 21074 after 18 hrs by CLSI broth microdilution method; conditions: ATCC 21074, 18 h
[23] = tested on: Proteus vulgaris; assay: Antibacterial activity against Proteus vulgaris ATCC 29905 after 18 hrs by CLSI broth microdilution method; conditions: ATCC 29905, 18 h
[24] = tested on: Providencia rettgeri; assay: Antibacterial activity against Providencia rettgeri ATCC 31052 after 18 hrs by CLSI broth microdilution method; conditions: ATCC 31052, 18 h
[25] = tested on: Staphylococcus epidermidis; assay: Antibacterial activity against methicillin-sensitive Staphylococcus epidermidis ATCC 12228 after 18 hrs by CLSI broth microdilution method; conditions: ATCC 12228, 18 h
[26] = tested on: Escherichia coli; assay: Antibacterial activity against extended-spectrum beta-lactamase deficient Escherichia coli 1515 after 18 hrs by CLSI broth microdilution method; conditions: Escherichia coli, 1515, 18 h
[27] = tested on: Klebsiella aerogenes; assay: Antibacterial activity against Enterobacter aerogenes ATCC 13048 after 18 hrs by CLSI broth microdilution method; conditions: ATCC 13048, 18 h
[28] = tested on: Klebsiella pneumoniae; assay: Antibacterial activity against extended-spectrum beta-lactamase harboring Klebsiella pneumoniae 12-8 after 18 hrs by CLSI broth microdilution method; conditions: 12-8, 18 h
[29] = tested on: Staphylococcus epidermidis; assay: Antibacterial activity against methicillin-sensitive Staphylococcus epidermidis 12-6 after 18 hrs by CLSI broth microdilution method; conditions: 12-6, 18 h
[30] = tested on: Staphylococcus epidermidis; assay: Antibacterial activity against methicillin-resistant Staphylococcus epidermidis 12-8 after 18 hrs by CLSI broth microdilution method; conditions: 12-8, 18 h
[31] = tested on: Staphylococcus aureus; assay: Antibacterial activity against methicillin-sensitive Staphylococcus aureus ATCC 29213 after 18 hrs by CLSI broth microdilution method; conditions: ATCC 29213, 18 h
[32] = tested on: Pseudomonas aeruginosa; assay: Antibacterial activity against Pseudomonas aeruginosa 12-16 after 18 hrs by CLSI broth microdilution method; conditions: 12-16, 18 h
[33] = tested on: Staphylococcus aureus; assay: Antibacterial activity against methicillin-sensitive Staphylococcus aureus 15 after 18 hrs by CLSI broth microdilution method; conditions: Staphylococcus aureus, 15, 18 h
[34] = tested on: Citrobacter freundii; assay: Antibacterial activity against Citrobacter freundii ATCC 43864 after 18 hrs by CLSI broth microdilution method; conditions: ATCC 43864, 18 h
[35] = tested on: Escherichia coli; assay: Antibacterial activity against extended-spectrum beta-lactamase deficient Escherichia coli ATCC 25922 after 18 hrs by CLSI broth microdilution method; conditions: ATCC 25922, 18 h
[36] = tested on: Escherichia coli; assay: Antibacterial activity against extended-spectrum beta-lactamase harboring Escherichia coli 12-15 after 18 hrs by CLSI broth microdilution method; conditions: 12-15, 18 h
[37] = tested on: Staphylococcus aureus; assay: Antibacterial activity against methicillin-resistant Staphylococcus aureus ATCC 33591 after 18 hrs by CLSI broth microdilution method; conditions: ATCC 33591, 18 h
[38] = tested on: Enterococcus faecium; assay: Antibacterial activity against vancomycin-sensitive Enterococcus faecium 12-3 after 18 hrs by CLSI broth microdilution method; conditions: 12-3, 18 h
[39] = tested on: Pseudomonas aeruginosa; assay: Antibacterial activity against Pseudomonas aeruginosa ATCC 27853 after 18 hrs by CLSI broth microdilution method; conditions: ATCC 27853, 18 h
[40] = tested on: Proteus mirabilis; assay: Antibacterial activity against Proteus mirabilis 12-6 after 18 hrs by CLSI broth microdilution method; conditions: 12-6, 18 h
[41] = tested on: Enterococcus faecium; assay: Antibacterial activity against vancomycin-resistant Enterococcus faecium 12-1 after 18 hrs by CLSI broth microdilution method; conditions: 12-1, 18 h
[42] = tested on: Klebsiella pneumoniae; assay: Antibacterial activity against new delhi metallo-beta-lactamase-1 harboring Klebsiella pneumoniae ATCC BAA-2146 after 18 hrs by CLSI broth microdilution method
[43] = tested on: Acinetobacter calcoaceticus; assay: Antibacterial activity against Acinetobacter calcoaceticus ATCC 19606 after 18 hrs by CLSI broth microdilution method; conditions: ATCC 19606, 18 h

C[C@@H](O)[C@H]1C(=O)N2C(C(=O)O)=C(S[C@@H]3CN[C@H](C(=O)N(C)C)C3)[C@H](C)[C@H]12 [MEROPENEM]
MIC ([1]; 13-1, 18 h): 64 mg/L (≈ 167 µM) | MIC ([2]; 12-12, 18 h): 32 mg/L (≈ 83.4 µM) | MIC ([3]; 13-1, 18 h): 4 mg/L (≈ 10.4 µM) | MIC ([4]; 13-1, 18 h): 32 mg/L (≈ 83.4 µM) | MIC ([5]; 11-4, 18 h): 32 mg/L (≈ 83.4 µM) | MIC ([6]; CDC1000654, 18 h): 2 mg/L (≈ 5.22 µM) | MIC ([7]; CDC1001728, 18 h): 2 mg/L (≈ 5.22 µM) | MIC ([8]; 12-6, 18 h): 32 mg/L (≈ 83.4 µM) | MIC ([9]; 13-1, 18 h): 8 mg/L (≈ 20.9 µM) | MIC ([10]; 12-11, 18 h): 64 mg/L (≈ 167 µM)

C[C@H]1COc2c(N3CCN(C)CC3)c(F)cc3c(=O)c(C(=O)O)cn1c23.C[C@H]1COc2c(N3CCN(C)CC3)c(F)cc3c(=O)c(C(=O)O)cn1c23.O [LEVOFLOXACIN]
MIC [11]: 0.25 mg/L | MIC [12]: ≤ 0.03 mg/L | MIC ([1]; 13-1, 18 h): 2 mg/L | MIC [13]: 0.5 mg/L | MIC ([2]; 12-12, 18 h): 8 mg/L | MIC ([3]; 13-1, 18 h): 64 mg/L | MIC [14]: ≤ 0.03 mg/L | MIC [15]: 64 mg/L | MIC [16]: 32 mg/L | MIC [17]: 1 mg/L | MIC [18]: > 128 mg/L | MIC [19]: 0.125 mg/L | MIC [20]: 0.5 mg/L | MIC ([4]; 13-1, 18 h): 128 mg/L | MIC ([5]; 11-4, 18 h): 16 mg/L | MIC [21]: ≤ 0.03 mg/L | MIC ([6]; CDC1000654, 18 h): 32 mg/L | MIC [22]: 0.06 mg/L | MIC [23]: 0.125 mg/L | MIC ([7]; CDC1001728, 18 h): 16 mg/L | MIC [24]: ≤ 0.03 mg/L | MIC [25]: 0.125 mg/L | MIC [26]: ≤ 0.03 mg/L | MIC [27]: ≤ 0.03 mg/L | MIC [28]: 8 mg/L | MIC [29]: 0.5 mg/L | MIC [30]: 4 mg/L | MIC [31]: 0.125 mg/L | MIC [32]: 8 mg/L | MIC [33]: 0.125 mg/L | MIC [34]: ≤ 0.03 mg/L | MIC ([8]; 12-6, 18 h): 8 mg/L | MIC [35]: ≤ 0.03 mg/L | MIC ([10]; 12-11, 18 h): 16 mg/L | MIC [36]: 16 mg/L | MIC [37]: 0.125 mg/L | MIC [38]: 32 mg/L | MIC [39]: 0.5 mg/L | MIC [40]: 4 mg/L | MIC [41]: 32 mg/L | MIC ([42]; ATCC BAA-2146, 18 h): > 128 mg/L | MIC [43]: 0.5 mg/L

CN(C)c1cc(NC(=O)CNC(C)(C)C)c(O)c2c1C[C@H]1C[C@H]3[C@H](N(C)C)C(O)=C(C(N)=O)C(=O)[C@@]3(O)C(O)=C1C2=O [TIGECYCLINE]
MIC ([1]; 13-1, 18 h): 0.5 mg/L (≈ 0.854 µM) | MIC ([2]; 12-12, 18 h): 1 mg/L (≈ 1.71 µM) | MIC ([3]; 13-1, 18 h): 0.25 mg/L (≈ 0.427 µM) | MIC ([4]; 13-1, 18 h): 1 mg/L (≈ 1.71 µM) | MIC ([5]; 11-4, 18 h): 1 mg/L (≈ 1.71 µM) | MIC ([6]; CDC1000654, 18 h): 8 mg/L (≈ 13.7 µM) | MIC ([7]; CDC1001728, 18 h): 0.5 mg/L (≈ 0.854 µM) | MIC ([8]; 12-6, 18 h): 1 mg/L (≈ 1.71 µM) | MIC ([9]; 13-1, 18 h): 0.5 mg/L (≈ 0.854 µM) | MIC ([10]; 12-11, 18 h): 1 mg/L (≈ 1.71 µM) | MIC ([42]; ATCC BAA-2146, 18 h): 8 mg/L (≈ 13.7 µM)

COLISTIN
MIC [1]: 0.5 mg/L | MIC [2]: 1 mg/L | MIC [3]: 0.5 mg/L | MIC [4]: 0.5 mg/L | MIC [5]: 0.5 mg/L | MIC [6]: 0.5 mg/L | MIC [7]: 0.5 mg/L | MIC [8]: 0.5 mg/L | MIC [9]: 0.5 mg/L | MIC [10]: 0.5 mg/L | MIC [42]: 0.5 mg/L
